In the experiment the test system is Human Neuroblastoma IMR-32 Cell. The experiment in a line: Inhibition of production and secretion of Aβ in IMR-32 cells (ELISA of Aβ). Format: cell-based. The settings on record: 24 hours incubation, Aβ in supernatant by ELISA. As to the method:
1) Incubation of IMR-32 Cell
IMR-32 cells (American Type Culture Collection Inc.) were seeded to 35 mmφPetri dish (FALCON Ltd.) at 37° C. for 2 to 3 days at 1.5×10^5 cells/petri dish. A DMSO solution containing test compound was dissolved in a 0.2% bovine serum albumin (Sigma Inc.)/Dulbecco's modified Eagle medium (Sigma Inc.), and a 1 mL of the mixture was added to the above Petri dish and the mixture was incubated for additional 24 hours. A 0.2% bovine serum albumin/Dulbecco's modified Eagle medium without the test compound was used as a control. The supernatant was collected and centrifuged at 5000 rpm for 5 minutes to precipitate a suspension cell. After centrifugation, the supernatant was used as a measurement sample of Aβ.
(2) Determination by Enzyme-Linked Immunoassay (ELISA) of Aβ
To a maxi sorp 96 well plate (Nunc Inc.) was added 50 μL portions of 4G8 antibody (Sigma Inc.) dissolved in 0.1M carbonate buffer (pH 9.5) and the mixture was allowed to stand at 4° C. overnight. […] After washing three times with PBST, color was developed by TMB substrate kit (Pias Inc.) and the calorimetric method (measured wavelength: 450 nm) was determined by a plate reader (ELx 808, BIO-TEK INSTRUMENTS Inc.).

With `C[C@@H](NC(=O)c1cc(C(=O)N[C@@H](Cc2ccccc2)[C@@H](O)C(=O)Nc2ncc[nH]2)cc(N(C)S(C)(=O)=O)c1)c1ccccc1` [Example 1, N-[(1S,2R)-1-Benzyl-2-hydroxy-3-(1H-imidazol-2-ylamino)-3-oxopropyl]-5-[methyl(methylsulfonyl)amino]-N′-[(1R)-1-phenylethyl]isophthalamide], the IC50 was 200 nM. That is a sub-micromolar value.

For the origin of these results see patent US7816387B2, “β secretase inhibitor” (Dainippon Sumitomo Pharma Co., Ltd., priority 2005, dated 2010).
